In series [1] the target is T1, Factor D (Homo sapiens, UniProt P00746).
T1 construct: purchased COMPTECH (Tyler Tex.)
The experiment in a line: BLI biosensor assay of Factor D cleavage of Factor B, anti-Bb antibody binding. It counts as biochemical. In general terms: In BLI a coated tip is dipped into the sample, and binding shifts an interference pattern.
Experimental: All measurements were recorded on an OCTET® RED System set to the advanced quantitation mode. The biosensors were SA-Streptavidin DIP AND READ™ configured to a 96-well microplate format (FORTEBIO). All loading volumes were 200 μl.
Eight streptavidin-coated biosensors were incubated with bio-C3b (10 μg/ml), and Factor B (0.6 μM) in Kinetics Buffer with 1 mM NiCl2 for 6 minutes.
To form bio-C3b/Bb, each biosensor was loaded with a mixture of BioC3b (10 μg/mL), factor B (600 nM) and Ni^2+ (1 mM) in Kinetics Buffer. […] The incubation time was 2 minutes.
The presence of Bb on the biosensor was detected by loading the biosensors with 55 nM of an anti-Bb antibody (Quidel, A227) and 55 nM Goat anti-mouse secondary antibody in Kinetics Buffer. The incubation time was 2 minutes.
From time 0 to about 360 seconds (˜6 minutes), the 269 kDa bio-C3b/Factor B complex formed on the streptavidin coated biosensor. […] From about 360 to about 480 seconds (˜2 minutes), Factor D cleaved Factor B into fragments Ba and Bb. […] The binding of the 300 kDa primary and secondary antibody complex to the Bb fragment was recorded as a positive wavelength shift from about 600 to 720 seconds (˜2 minutes).

Series [2] relates to C5 convertase. The experiment in a line: C5 convertase activity on bio-C3b spheres, C5a measured with ECL assay. It counts as biochemical. The conditions noted are these: for ECL signal (amount of C5a produced by C5 convertase): C5 100 nM, 60 min. The procedure:
The bio-C3b binding to streptavidin was performed in a 2.0 ml micro-centrifuge tube. Two hundred and forty μg of SPHEROTECH beads, 0.3 mm diameter. Streptavidin coated spheres were first washed by centrifugation with 300 μL of 10 mM Tris, pH 8, and then resuspended in 200 μL of 10 mM Tris, pH 8. The spheres were incubated with bio-C3b or C3b at a concentration of 320 nM. Spheres were suspended by gentle shaking at 1350 RPM for 20 minutes at room temperature, and collected by centrifugation at 16 RCF for 10 minutes. The residual supernatant was removed and the beads were then washed to remove residual unbound bio-C3b.
C5 convertase was formed on the spheres by incubating the bio-C3b spheres with a Convertase Solution that included components of the AP, a divalent cation and buffer. The Convertase Solution consisted of Factor D, (10 nM), Factor B (400 nM), and NiCl2 (200 μM) in 10 mM Tris, pH 8.0. The spheres were suspended by gentle shaking at 1350 RPM for 20 minutes at 37° C. The spheres were centrifuged at 16×g (RCF) for 10 minutes, the supernatant is removed, and the spheres are resuspended in 1.2 ml of 10 mM Tris pH 8, 1 mM EDTA to a final concentration of 200 μg/ml.
Formation of C5a was accomplished by incubating C5, and the spheres in a Reaction Solution that included a divalent cation. The Reaction Solution was prepared by transferring to a microplate well: (i) 2 μg of spheres with C5 convertase in 10 μl of the Convertase Solution; (ii) 20 μL of a 500 μM NiCl2 solution; and (iii) 20 μL of a 250 nM solution of C5 (5 pmoles). […] Following the incubation, the reaction was stopped by adding 10 μL of a 500 mM EDTA in 10 mM Tris, pH=8.0; (Total Volume=60 μl).
The amount of C5a in the Reaction Solution was measured with an Elisa-like assay, similar to an ELISA. The neo-epitope anti-C5a antibody, BNJ383, captured soluble C5a, binding it to a well in a microplate. BNJN383 has a high affinity for C5a but a low affinity for C5. The detection reagent was a mouse anti-C5a antibody that binds the C5a captured on the plate, and a SULFO-TAG™ modified anti-mouse secondary antibody that bound the mouse antibody, and generated an ECL signal.
To wells of a high binding 96-well microplate (MSD Catalog No. L15XB-3) was added BNJ383 (0.3 pmoles,) 2 μg/mL in 25 μL of a carbonate-bicarbonate buffer at pH 9.4. The microplate was sealed and incubated at 37′C for 60 minutes. […]
The wells were sealed with a foil seal and incubated in the dark for 30 minutes. […] One hundred and fifty μL of 2×MSD Read Buffer containing tripropylamine as an electron carrier was added to the wells using a negative pipetting technique. The microplate was read on an MSD imager to measure the ECL signal generated by the SULFO-TAG™ affixed to the goat secondary antibody. […]

T1 sequence (P00746 26-253): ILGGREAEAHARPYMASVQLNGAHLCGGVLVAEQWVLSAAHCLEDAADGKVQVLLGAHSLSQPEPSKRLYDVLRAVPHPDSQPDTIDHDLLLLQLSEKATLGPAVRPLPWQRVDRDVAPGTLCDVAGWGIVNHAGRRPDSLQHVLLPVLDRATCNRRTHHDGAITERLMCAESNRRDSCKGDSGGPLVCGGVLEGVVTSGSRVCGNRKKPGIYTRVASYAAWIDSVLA

Turning to `O=c1oc(Cl)c(Cl)c2ccccc12` [DCIC, 3,4-Dichloroisocoumarin], the “Effect on Factor D activity (in words)” value in series [1] (DCIC 23 μM and 35 μM) is on record as “minimal effect”. Moreover, the “Inhibition of Factor D (in words)” value in series [1] (DCIC 178 μM, 267 μM and 400 μM) is on record as “maximally inhibited”.
With “OmCI: tick saliva complement inhibitor, a C5 binding protein”, in series [2] (OmCI 50 nM), the “Effect on convertase activity (in words)” value was “essentially no effect” and the “ECL signal (amount of C5a produced by C5 convertase)” value is reported as 40,000. In addition, in series [2] (OmCI 100 nM), the “drop of ECL signal” value was determined as 8 fold and the “ECL signal (amount of C5a produced by C5 convertase)” value is given as 5000.

These data come from patent US20180074077A1, “A METHOD FOR MEASURING THE PROTEASE ACTIVITY OF FACTOR D OF THE ALTERNATIVE COMPLEMENT PATHWAY” (priority 2015, published 2018).
